Here are results for 12 compounds from patent US7371742B2, “Porphyrin derivatives for photodynamic therapy” (Institut Curie, priority 2001, dated 2008).

Read-outs that look alike come from different tables or passages of the source.

Series [1] has as its system human colic adenocarcinoma cell line HT29. In words: HT29 cell survival (MTT assay) after 24 h incubation, with or without light irradiation. The following applies: for cytotoxic for HT29 (in words): without light, remark of the inventors.
Procedure: HT29 cells were cultivated in Dulbecco's MEM supplemented with 10% fetal calf serum (FCS). Cells from log-phase culture were seeded in 24-microwell plates (1 mL-5×10^4 cells/well) and kept at 37° C. in a water-jacketed incubator for 2 days under an air/CO2 atmosphere (5% CO2). Tested compounds, in DMSO solution, were added under the minimum volume (5 μL) to reach a concentration ranging from 0.1 to 10 μg/mL. Controls cells received 5 μL of DMSO free of dye. Plates were incubated 24 h, then medium was removed and the cells were washed twice with phosphate buffered saline (PBS) before addition of fresh medium free of drug and irradiation with visible light using a home made “light box” giving a fluence of 3.8 mW/cm^2 on the whole visible spectrum. Irradiation with red light was carried out using the same device fitted with an orange filter (0% T at 520 nm and 80% T at 590 nm) leading to a fluence of 2 mW/cm^2.
Plates were reincubated for 3 days before evaluation of the cell survival using the MTT assay (T. Mosmann, “Rapid calorimetric assay for cellular growth and survival. Application to proliferation assays”. J. Immunol. Methods 65,55-63,1983) using 30 min incubation with 100 μg well of 3-[4,5-dimethylthiazol-2-yl]-2,5-diphenyl tetrazolium bromide (MTT, Sigma). After removal of the medium, formazan crystals were taken up with 100 μL of DMSO and absorbance at 540 ni was measured with a Bio-Rad microplate reader (model 450); survival was expressed as % of untreated controls.
Series [2] concerns RBY-79 (indifferently named Y-79) cells. In words: RBY-79 (Y79) cell cytotoxicity / photocytotoxicity. As to conditions: for cytotoxic for Y79 (in words): without light, remark of the inventors.
Source text: Columns HT29 and Y79 (═RBY79), without light, correspond to the cytotoxic activity.
For another series, the system named is L-1210 cells. As to the kind of experiment: Cytotoxicity L-1210 (no light), cytostatic activity. Type of series: cell-based, human. As to conditions: no light. The text has this:
Column L1210 corresponds to the cytostatic activity.

The mark [3] stands for this setting: read-out: HT 29 IC50 (μM) with 2J/cm^2, irradiation with filter (0% T at 520 nm, 80% T at 590 nm), 3.5 mW/cm^2, 10 min.
[4] abbreviates: read-out: HT 29 IC50 (μM) without light, without light (cytotoxic activity).
[5] abbreviates: read-out: Y79 IC50 (μM) With 2J/cm^2, irradiation with filter (0% T at 520 nm, 80% T at 590 nm), 3.5 mW/cm^2, 10 min.
Setting [6] is: read-out: Y79 IC50 (μM) without light, without light (cytotoxic activity).

Consider `OC[C@H]1O[C@H](OCCOCCOc2ccc(-c3c4nc(c(-c5ccc(OCCOCCO[C@H]6O[C@H](CO)[C@@H](O)[C@H](O)[C@@H]6O)cc5)c5ccc([nH]5)c(-c5ccc(OCCOCCO[C@H]6O[C@H](CO)[C@@H](O)[C@H](O)[C@@H]6O)cc5)c5nc(c(-c6ccccc6)c6ccc3[nH]6)C=C5)C=C4)cc2)[C@@H](O)[C@@H](O)[C@@H]1O` [Compound 67, TPP(p-O-DEG-O-α-Mann)3], for which, in series [1] (50% effect, with light), the “Photocytotoxicity HT 29, concentration giving 50%” value worked out at 1.5 µg/mL. Besides, the IC50 was 0.7 ± 0.4 µM in series [1] (setting [3]), over 10 µM in series [1] (setting [4]), 0.3 ± 0.08 µM in series [2] (setting [5]) and over 10 µM in series [2] (setting [6]). For the same compound, the “Photocytotoxicity RBY-79, % at 1 μg/ml” value in series [2] (1 μg/ml) was 0% at 1 μg/ml. In addition, the “Photocytotoxicity RBY-79, % at 2 μg/ml” value in series [2] is 80% at 2 μg/ml,. Besides, the “Photocytotoxicity RBY-79, concentration giving 50%” value in series [2] (50% effect, with light) is 50% at 1.5 μg/ml,. The “Cytotoxicity L-1210 (no light), concentration giving 50%” value with L-1210 cells (50% effect) is recorded as 50% 8 μg/ml.
As for `O[C@@H]1[C@@H](O)[C@H](SCc2ccc(-c3c4nc(c(-c5ccc(CS[C@@H]6OC[C@@H](O)[C@H](O)[C@H]6O)cc5)c5ccc([nH]5)c(-c5ccc(CS[C@@H]6OC[C@@H](O)[C@H](O)[C@H]6O)cc5)c5nc(c(-c6ccc(CS[C@@H]7OC[C@@H](O)[C@H](O)[C@H]7O)cc6)c6ccc3[nH]6)C=C5)C=C4)cc2)OC[C@H]1O` [Compound 64, TPP(p-CH2-S-β-XylOH)4], the “Photocytotoxicity HT 29, % at 10 μg/ml” value in series [1] (10 μg/ml) was 30% at. For the same compound, the IC50 was 4.5 µM in series [1] (setting [3]), over 10 µM in series [1] (setting [4]) and 3.8 µM in series [2] (setting [6]). In series [2] (50% effect, with light or not), the “RBY-79, concentration giving 50% with light or not” value is listed as 50% at 7 μg/ml. For the same compound, in series [2] (irradiation with filter (0% T at 520 nm, 80% T at 590 nm), 3.5 mW/cm^2, 10 min), the “Y79 IC50 (μM) With 2J/cm^2” value is “Inactive”. Moreover, the “cytotoxic for Y79 (in words)” value in series [2] was “cytotoxic”. For the same compound, in the series with L-1210 cells (10 μg/ml), the “Cytotoxicity L-1210 (no light), % at 10 μg/ml” value amounted to 32%.
Turning to `OC[C@H]1O[C@H](SCCOCCOCCOc2ccc(-c3c4nc(c(-c5ccc(OCCOCCOCCS[C@H]6O[C@H](CO)[C@@H](O)[C@H](O)[C@@H]6O)cc5)c5ccc([nH]5)c(-c5ccc(OCCOCCOCCS[C@H]6O[C@H](CO)[C@@H](O)[C@H](O)[C@@H]6O)cc5)c5nc(c(-c6ccccc6)c6ccc3[nH]6)C=C5)C=C4)cc2)[C@@H](O)[C@@H](O)[C@@H]1O` [Compound 74, 5,10,15-tri(para-10-S-α-D-thiomanosyloxy-O-triethylene glycoloxyphenyl)-20-phenylporphyrin], the IC50 came to 4.8 µM in series [1] (setting [3]), 10.5 µM in series [1] (setting [4]), 0.5 ± 0.3 µM in series [2] (setting [5]) and 11 ± 5 µM in series [2] (setting [6]).
For the compound `OC[C@H]1O[C@@H](Oc2ccc(-c3c4nc(c(-c5ccc(O[C@@H]6O[C@H](CO)[C@@H](O)[C@H](O)[C@H]6O)cc5)c5ccc([nH]5)c(-c5ccc(O[C@@H]6O[C@H](CO)[C@@H](O)[C@H](O)[C@H]6O)cc5)c5nc(c(-c6ccccc6)c6ccc3[nH]6)C=C5)C=C4)cc2)[C@H](O)[C@@H](O)[C@@H]1O` [TPP(p-O-β-GluOH)3, reference compound], the IC50 in series [1] (setting [3]) is 1.5 ± 0.2 µM; in series [1] (setting [4]), over 15 µM; in series [2] (setting [5]) it was 0.9 µM; in series [2] (setting [6]), over 15 µM.
As for `Oc1ccc(-c2c3nc(c(-c4ccc(O)cc4)c4ccc([nH]4)c(-c4ccc(O)cc4)c4nc(c(-c5ccc(O)cc5)c5ccc2[nH]5)C=C4)C=C3)cc1` [TPP(p-OH)4, reference compound], the IC50 in series [1] (setting [3]) turned out to be 0.8 ± 1 µM; in series [1] (setting [4]), 7.75 ± 3 µM; in series [2] (setting [5]), 0.3 µM; in series [2] (setting [6]) it was 4.7 ± 2.5 µM. The “cytotoxic for HT29 (in words)” value in series [1] is given as “cytotoxic”. Besides, in series [2], the “cytotoxic for Y79 (in words)” value is given as “cytotoxic”.
`OC[C@H]1O[C@H](Sc2c(F)c(F)c(-c3c4nc(c(-c5c(F)c(F)c(S[C@H]6O[C@H](CO)[C@@H](O)[C@H](O)[C@@H]6O)c(F)c5F)c5ccc([nH]5)c(-c5c(F)c(F)c(S[C@H]6O[C@H](CO)[C@@H](O)[C@H](O)[C@@H]6O)c(F)c5F)c5nc(c(-c6c(F)c(F)c(F)c(F)c6F)c6ccc3[nH]6)C=C5)C=C4)c(F)c2F)[C@@H](O)[C@@H](O)[C@@H]1O` [Compound 33, TPP F4(p-S-α-MannOH)3]: the IC50 in series [1] (setting [3]) is 1.7 µM; in series [1] (setting [4]), over 10 µM; in series [2] (setting [5]), 2.7 µM; in series [2] (setting [6]) it was over 10 µM. Further, in series [2], the “Photocytotoxicity RBY-79, % at 2 μg/ml” value was 90% 2 μg/ml.
As to `Oc1cccc(-c2c3nc(c(-c4cccc(O)c4)c4ccc([nH]4)c(-c4cccc(O)c4)c4nc(c(-c5cccc(O)c5)c5ccc2[nH]5)CC4)C=C3)c1` [m-THPC, reference compound], the IC50 in series [1] (Homo sapiens, HT-29, light or radiation study, 10 min, read-out: HT 29 IC50 (μM) with 2J/cm^2) is 0.8 ± 0.3 µM; in series [1] (Homo sapiens, HT-29, read-out: HT 29 IC50 (μM) without light), over 10 µM; in series [2] (Homo sapiens, Y79, light or radiation study, 10 min, read-out: Y79 IC50 (μM) With 2J/cm^2), 0.6 ± 0.03 µM; in series [2] (Homo sapiens, Y79, read-out: Y79 IC50 (μM) without light), over 10 µM. The “cytotoxic for HT29 (in words)” value in series [1] is listed as “cytotoxic”. Also, the “cytotoxic for Y79 (in words)” value in series [2] is listed as “cytotoxic”.
With `OC[C@H]1O[C@H](Sc2c(F)c(F)c(-c3c4nc(c(-c5c(F)c(F)c(S[C@H]6O[C@H](CO)[C@@H](O)[C@H](O)[C@@H]6O)c(F)c5F)c5ccc([nH]5)c(-c5c(F)c(F)c(S[C@H]6O[C@H](CO)[C@@H](O)[C@H](O)[C@@H]6O)c(F)c5F)c5nc(c(-c6c(F)c(F)c(S[C@H]7O[C@H](CO)[C@@H](O)[C@H](O)[C@@H]7O)c(F)c6F)c6ccc3[nH]6)C=C5)C=C4)c(F)c2F)[C@@H](O)[C@@H](O)[C@@H]1O` [Compound 29, TPP F4(p-S-α-MannOH)4], the IC50 in series [1] (setting [3]) is 2.4 µM; in series [1] (setting [4]) it was over 10 µM; in series [2] (setting [5]), 3.3 µM; in series [2] (setting [6]) it was over 10 µM.
Consider TPPF4(p-O-β-GluOH)4 [Compound 63], for which the IC50 in series [1] (setting [3]), in series [1] (setting [4]), in series [2] (setting [5]) and in series [2] (setting [6]) was over 10 µM each time. Moreover, the “Photocytotoxicity RBY-79, % at 10 μg/ml white light” value in series [2] (10 μg/ml, white light) turned out to be 37%.
As for `Oc1ccc(-c2c3nc(c(-c4ccc(O)cc4)c4ccc([nH]4)c(-c4ccc(O)cc4)c4nc(c(-c5ccccc5)c5ccc2[nH]5)C=C4)C=C3)cc1` [TPP(p-OH)3, reference compound], the IC50 in series [1] (setting [3]) is 1.65 ± 0.07 µM; in series [1] (setting [4]), over 15 µM; in series [2] (setting [5]), 1.8 ± 0.1 µM; in series [2] (setting [6]), over 10 µM.
Consider `OC[C@H]1O[C@@H](Oc2ccc(-c3c4nc(c(-c5ccc(O[C@@H]6O[C@H](CO)[C@@H](O)[C@H](O)[C@H]6O)cc5)c5ccc([nH]5)c(-c5ccc(O[C@@H]6O[C@H](CO)[C@@H](O)[C@H](O)[C@H]6O)cc5)c5nc(c(-c6ccc(O[C@@H]7O[C@H](CO)[C@@H](O)[C@H](O)[C@H]7O)cc6)c6ccc3[nH]6)C=C5)C=C4)cc2)[C@H](O)[C@@H](O)[C@@H]1O` [TPP(p-O-β-GluOH)4, reference compound], for which the IC50 in series [1] (setting [3]) is over 10 µM; in series [1] (setting [4]), over 10 µM; in series [2] (setting [5]), 5.2 ± 4 µM; in series [2] (setting [6]) it was 7 ± 4 µM.
`OC[C@H]1O[C@H](Sc2c(F)c(F)c(/C3=c4\cc/c([nH]4)=C(\c4c(F)c(F)c(F)c(F)c4F)C4=NC(C=C4)[C@@H](c4c(F)c(F)c(F)c(F)c4F)c4ccc([nH]4)/C(c4c(F)c(F)c(S[C@H]5O[C@H](CO)[C@@H](O)[C@H](O)[C@@H]5O)c(F)c4F)=C4/C=CC3=N4)c(F)c2F)[C@@H](O)[C@@H](O)C1O` (stereo partly drawn) [Compound 31]: the “Photocytotoxicity RBY-79, % at 2 μg/ml” value in series [2] is given as 80% 2 μg/ml.
